Test results from patent US12551577B2, “7-ethyl-10-hydroxycamptothecin drug precursor with fluorescence activity, and preparation method and use thereof” (SOOCHOW UNIVERSITY, priority 2021, dated 2026).

Assay: Solubility in chloroform by weight loss method
Assay type: physicochemical
Details: 2 mg in 300 μL chloroform
Protocol: The weights of the two centrifuge tubes were recorded on an analytical balance, respectively. […] 300 μL of chloroform was added to the centrifuge tube, shaken, and centrifuged. […] The solubility of different compounds in chloroform was estimated by the weight loss method (where the specific operation includes pipetting the solution, and lyophilizing the remaining solid and weighing).

## CCc1c2c(nc3ccc(O)cc13)-c1cc3c(c(=O)n1C2)COC(=O)[C@]3(O)CC [SN38, 7-Ethyl-10-hydroxycamptothecin]
  solubility in chloroform: hardly soluble
